Assay [1] addresses T1, Peroxisome proliferator-activated receptor gamma (Homo sapiens, UniProt P37231).
T1 sequence (P37231 whole entry): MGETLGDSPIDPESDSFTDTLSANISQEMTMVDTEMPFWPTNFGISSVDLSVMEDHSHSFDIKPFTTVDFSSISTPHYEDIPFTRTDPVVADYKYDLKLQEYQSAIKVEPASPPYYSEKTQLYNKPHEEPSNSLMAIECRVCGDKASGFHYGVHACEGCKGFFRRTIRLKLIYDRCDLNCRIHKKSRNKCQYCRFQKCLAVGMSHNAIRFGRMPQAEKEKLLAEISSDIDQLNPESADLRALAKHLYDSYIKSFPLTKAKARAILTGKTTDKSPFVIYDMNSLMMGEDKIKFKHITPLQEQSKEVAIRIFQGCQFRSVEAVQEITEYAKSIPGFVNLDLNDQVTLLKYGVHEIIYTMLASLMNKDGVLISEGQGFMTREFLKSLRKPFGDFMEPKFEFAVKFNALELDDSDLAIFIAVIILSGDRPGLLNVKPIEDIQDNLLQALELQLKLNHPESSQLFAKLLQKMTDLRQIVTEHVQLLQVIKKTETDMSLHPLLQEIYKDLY
Description: Binding affinity to PPAR-gamma (unknown origin) by TR-FRET assay

For assay [2], the target named is T2, Peroxisome proliferator-activated receptor delta (Homo sapiens, UniProt Q03181).
T2 sequence (Q03181 whole entry): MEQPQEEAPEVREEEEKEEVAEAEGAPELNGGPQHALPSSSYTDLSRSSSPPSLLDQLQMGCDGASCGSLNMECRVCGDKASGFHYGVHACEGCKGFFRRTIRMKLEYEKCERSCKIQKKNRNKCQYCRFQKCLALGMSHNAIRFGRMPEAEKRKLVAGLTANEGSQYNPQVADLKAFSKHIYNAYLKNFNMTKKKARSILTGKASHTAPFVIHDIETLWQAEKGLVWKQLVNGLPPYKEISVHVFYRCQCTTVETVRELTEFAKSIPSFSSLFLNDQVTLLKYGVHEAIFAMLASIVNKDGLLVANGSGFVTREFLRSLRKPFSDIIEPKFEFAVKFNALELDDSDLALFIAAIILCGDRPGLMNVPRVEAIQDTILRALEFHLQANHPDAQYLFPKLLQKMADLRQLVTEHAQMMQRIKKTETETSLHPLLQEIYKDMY
Description: Binding affinity to PPAR-delta (unknown origin) by TR-FRET assay

The term Ki denotes a measure of affinity in units of concentration, obtained from inhibition or displacement. Low values mean higher affinity, high ones lower affinity.

For the compound `O[C@@H]1[C@H](O)CS[C@H]1Cn1cnc2c(NCc3cccc(F)c3)nc(Cl)nc21`, the Ki in assay [1] is 3.89 µM; in assay [2], 1.91 µM.

As to `O[C@@H]1[C@H](O)CS[C@H]1Cn1cnc2c(NCc3cccc(Br)c3)nc(Cl)nc21`, the inhibition constant Ki in assay [1] is 4.07 µM; in assay [2] it was 0.592 µM. `O[C@@H]1[C@H](O)CS[C@H]1n1cnc2c(NCc3cccc(I)c3)nc(Cl)nc21`: in assay [2], the Ki is 0.0106 µM.

As for `CC#Cc1nc(NCc2cccc(I)c2)c2ncn(C[C@@H]3SC[C@@H](O)[C@H]3O)c2n1`, the Ki in assay [1] was 7.3 µM. Take `O[C@@H]1[C@H](O)CO[C@H]1Cn1cnc2c(NCc3cccc(Br)c3)nc(Cl)nc21`: the Ki came to 9.55 µM in assay [1] and 1.43 µM in assay [2]. Regarding `CC#Cc1nc(NCc2cccc(F)c2)c2ncn(C[C@@H]3SC[C@@H](O)[C@H]3O)c2n1`, the Ki in assay [1] was 7.66 µM. This lies in the single-digit micromolar range. For `CC#Cc1nc(NCc2cccc(Br)c2)c2ncn(C[C@@H]3SC[C@@H](O)[C@H]3O)c2n1`, in assay [1], the affinity corresponds to a Ki of 7.04 µM. This Ki and that of the compound before are within 1.5-fold of each other.

Regarding `O[C@@H]1[C@H](O)CO[C@H]1Cn1cnc2c(NCc3cccc(Cl)c3)nc(Cl)nc21`, the Ki was found to be 7.66 µM in assay [1] and 0.504 µM in assay [2].

For the origin of these results see ChEMBL document CHEMBL4699668, “Discovery and Structure-Activity Relationships of Novel Template, Truncated 1'-Homologated Adenosine Derivatives as Pure Dual PPARγ/δ Modulators” (J Med Chem, 2020).
